Test results published in patent publication US20150065440A1 (Progen Pharmaceuticals Limited, priority 2007, published 2015).

Columns and labels:
HSV-1 [1] = assay: Anti-HSV screening assay (viral plaques), HSV-1; assay type: cell-based; conditions: 100 μg/mL, viral plaques relative to mock treated controls
Method: (§1) African green monkey kidney (GMK AH1) cells^46 were cultured in Eagle's minimum essential medium (EMEM) supplemented with 2% calf serum, 0.05% Primaton RL substance (Kraft Inc., Norwich, USA) and antibiotics. Human epidermoid carcinoma (HEp-2) cells were cultured in Dulbecco's modified EMEM (DMEM) supplemented with 10% fetal calf serum and antibiotics. […] The RSV strain A-2^50 was used. The RSV stock was prepared as described by Hallak et al.^51 and stored at −70° C. in the presence of 40% sucrose^52.
(§2) The viral infectivity (the plaque number-reduction) assay and the plaque size-reduction assay were carried out as described previously^17. […] Subsequently, the cells were washed with 2 mL of EMEM and overlaid with 1% methylcellulose solution in EMEM. The plaques were visualized by staining with crystal violet solution after 2 (HSV-2) or 3 (HSV-1) days of incubation at 37° C. […] When the compounds were screened for anti-HSV or anti-RSV activity, mixtures of 200 PFU of the virus and the test compound (100 μg/mL) in serum-free EMEM were incubated for 10 min at room temperature before addition to cells and during the entire period of viral infection of cells and the development of viral plaques. In the plaque size-reduction assay, the compounds were added to cells (in methylcellulose overlay medium) after 2 h period of virus infection of cells in the absence of the inhibitor. After 2-3 days of incubation at 37° C., the viral plaques were visualized by staining the cells with 1% solution of crystal violet. For each compound tested, the images of twenty neighboring plaques were captured using a Leica DC300 digital camera attached to a Leitz-Wetzlar Diavert microscope. The area of each plaque was determined using IM500 image software (Leica). Similar protocols were used for RSV, except that the assays were performed in HEp-2 cells and DMEM supplemented with 2% heat-inactivated fetal calf serum was used instead of EMEM.

HSV-2 [2] = assay: Anti-HSV screening assay (viral plaques), HSV-2; assay type: cell-based; conditions: 100 μg/mL, viral plaques relative to mock treated controls
Method: as §1, §2

[3] = target: T1, recombinant human heparanase (Homo sapiens, UniProt Q9Y251); assay: Heparanase inhibition assay (fondaparinux cleavage, WST-1); conditions: read-out: Ki Heparanase; IC50 converted into Ki; fondaparinux 100 μM, pH 5.0
T1 sequence (Q9Y251 158-543 limits assumed): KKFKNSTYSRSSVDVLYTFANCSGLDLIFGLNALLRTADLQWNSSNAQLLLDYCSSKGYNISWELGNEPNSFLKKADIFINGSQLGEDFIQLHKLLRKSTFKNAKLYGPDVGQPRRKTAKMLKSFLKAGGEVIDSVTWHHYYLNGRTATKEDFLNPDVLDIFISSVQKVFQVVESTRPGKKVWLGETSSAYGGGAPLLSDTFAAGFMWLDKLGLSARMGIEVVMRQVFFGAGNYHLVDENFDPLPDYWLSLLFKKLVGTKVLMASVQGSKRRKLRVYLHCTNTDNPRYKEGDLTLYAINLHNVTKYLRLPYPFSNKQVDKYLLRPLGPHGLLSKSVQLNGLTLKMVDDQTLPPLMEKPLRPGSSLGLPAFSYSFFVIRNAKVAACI
T1 sequence (Q9Y251 36-109 limits assumed): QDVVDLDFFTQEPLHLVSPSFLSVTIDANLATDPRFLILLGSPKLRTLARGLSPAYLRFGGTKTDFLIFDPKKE
Method: In the presence of an inhibitor the catalytic activity of heparanase is reduced, and the amount of disaccharide produced and the optical density of the solution are both decreased. The percent inhibition and IC50 of the inhibitor are determined from measurement of the optical density (OD) over a range of inhibitor concentrations.
Assays were carried out in 40 mM sodium acetate buffer, pH 5.0, as follows. […] A blue colour was developed by incubation of the plates at 60° C. for 60 min. […] The IC50 value for each compound was evaluated and converted into a Ki (inhibition constant) using the expression

RSV = assay: Anti-RSV screening assay (viral plaques); assay type: cell-based; conditions: 100 μg/mL, viral plaques relative to mock treated controls
Method: as §1, §2

FGF-2 = FGF-2 (Homo sapiens, UniProt P09038); assay: Growth factor binding assay (SPR solution affinity), FGF-2; conditions: SPR, HBS-EP buffer containing 0.3 M NaCl, 25° C.; read-out: Kd FGF-2
Chain of FGF-2 (P09038 143-288, species assumed): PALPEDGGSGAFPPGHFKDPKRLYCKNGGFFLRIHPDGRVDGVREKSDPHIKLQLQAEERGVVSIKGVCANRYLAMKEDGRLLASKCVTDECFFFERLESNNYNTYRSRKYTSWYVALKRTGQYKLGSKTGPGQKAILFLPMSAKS
Outline: (§3)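 Kd measured by SPR solution affinity: fixed growth factor with varying ligand competing for heparin-coated sensorchip, 25 °C. Buffer HBS-EP pH 7.4 (150 mM NaCl) for FGF-1 and VEGF; FGF-2 with 0.3 M NaCl. Duplicate values averaged.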

FGF-1 = FGF-1 (Homo sapiens, UniProt P05230); assay: Growth factor binding assay (SPR solution affinity), FGF-1; conditions: SPR, HBS-EP buffer, 25° C.; read-out: Kd FGF-1
Chain of FGF-1 (P05230 whole entry, species assumed): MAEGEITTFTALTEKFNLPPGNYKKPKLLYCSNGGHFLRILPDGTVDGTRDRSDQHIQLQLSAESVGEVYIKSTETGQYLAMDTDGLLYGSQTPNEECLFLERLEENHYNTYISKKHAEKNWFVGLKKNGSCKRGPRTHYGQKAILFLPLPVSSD

VEGF = target: T2, VEGF (Homo sapiens, UniProt P15692); assay: Growth factor binding assay (SPR solution affinity), VEGF; conditions: HBS-EP buffer, 25° C.
T2 sequence (P15692 207-395): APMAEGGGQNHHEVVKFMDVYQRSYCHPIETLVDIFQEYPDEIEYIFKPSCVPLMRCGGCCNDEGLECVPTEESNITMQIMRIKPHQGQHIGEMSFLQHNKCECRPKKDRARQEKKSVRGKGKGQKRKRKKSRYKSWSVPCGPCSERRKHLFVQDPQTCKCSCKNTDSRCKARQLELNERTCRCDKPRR
Outline: as §3

HSV-2 [4] = assay: Viral plaque number-reduction assay, HSV-2; conditions: GMK AH1 cells
Method: as §1, §2

GMK AH1 cells = assay: Cytotoxicity assay, GMK AH1; assay type: cell-based, African green monkey; conditions: cell viability reduced by 50%
Method: The assay was performed in GMK AH1 cells that had been seeded in 96 well cluster plates and reached approximately 80-90% confluence at day 2 of culture. The cells were washed with EMEM and incubated for 24 h at 37° C. with 100 μL of serial two-fold dilutions of the test compound in serum-free EMEM. The effect of the test compound on cell viability was measured by using the tetrazolium-based CellTiter96 assay according to the manufacturer's protocol (Promega, Madison, Wis., USA).

HSV-1 [5] = assay: Viral plaque number-reduction assay, HSV-1; conditions: GMK AH1 cells
Method: as §1, §2

Structure (SMILES): O=S(=O)(O)OCC1OC(OC2C(OCCCCCCCCCCCCn3cc(-c4ccccc4)nn3)OC(COS(=O)(=O)O)C(OS(=O)(=O)O)C2OS(=O)(=O)O)C(OS(=O)(=O)O)C(OC2OC(COS(=O)(=O)O)C(OS(=O)(=O)O)C(OC3OC(COS(=O)(=O)O)C(OS(=O)(=O)O)C(OC4OC(COS(=O)(=O)O)C(OS(=O)(=O)O)C(OS(=O)(=O)O)C4OS(=O)(=O)O)C3OS(=O)(=O)O)C2OS(=O)(=O)O)C1OS(=O)(=O)O [Compound 8, 12-(4-Phenyl-[1,2,3]triazol-1-yl)dodecyl 2,3,4,6-tetra-O-sodium sulfonato-α-D-mannopyranosyl-(1→3)-2,4,6-tri-O-sodium sulfonato-α-D-mannopyranosyl-(1→3)-2,4,6-tri-O-sodium sulfonato-α-D-mannopyranosyl-(1→3)-2,4,6-tri-O-sodium sulfonato-α-D-mannopyranosyl-(1→2)-3,4,6-tri-O-sodium sulfonato-α-D-mannopyranoside]
- Residual infectivity (%) HSV-1 (HSV-1 [1]): 7%
- Residual infectivity (%) HSV-2 (HSV-2 [2]): 0.2%
- Ki [3]: 3.5 ± 0.4 nM
- Residual infectivity (%) RSV (RSV): 3%
- Kd (FGF-2): 253 ± 25 nM
- Kd (FGF-1): 2.3 ± 1.3 nM
- Kd (VEGF): 5.1 ± 1.8 nM

Structure (SMILES): O=S(=O)(O)OCC1OC(OC2C(OCCCCCCCCCCCCn3cc(-c4cccc5ccccc45)nn3)OC(COS(=O)(=O)O)C(OS(=O)(=O)O)C2OS(=O)(=O)O)C(OS(=O)(=O)O)C(OC2OC(COS(=O)(=O)O)C(OS(=O)(=O)O)C(OC3OC(COS(=O)(=O)O)C(OS(=O)(=O)O)C(OC4OC(COS(=O)(=O)O)C(OS(=O)(=O)O)C(OS(=O)(=O)O)C4OS(=O)(=O)O)C3OS(=O)(=O)O)C2OS(=O)(=O)O)C1OS(=O)(=O)O [Compound 11, 12-(4-Naphthalen-1-yl-[1,2,3]triazol-1-yl)dodecyl 2,3,4,6-tetra-O-sodium sulfonato-α-D-mannopyranosyl-(1→3)-2,4,6-tri-O-sodium sulfonato-α-D-mannopyranosyl-(1→3)-2,4,6-tri-O-sodium sulfonato-α-D-mannopyranosyl-(1→3)-2,4,6-tri-O-sodium sulfonato-α-D-mannopyranosyl-(1→2)-3,4,6-tri-O-sodium sulfonato-α-D-mannopyranoside]
- Selective index CC50/IC50 HSV-2 (HSV-2 [4]): > 444
- Residual infectivity (%) HSV-1 (HSV-1 [1]): 0%
- Residual infectivity (%) HSV-2 (HSV-2 [2]): 0%
- Ki [3]: 4.8 ± 1.8 nM
- Residual infectivity (%) RSV (RSV): 0%
- Cytotoxicity CC50 GMK AH1 (GMK AH1 cells): >400 µg/mL
- Kd (FGF-2): 73 ± 23 nM
- Kd (FGF-1): 0.19 ± 0.1 nM
- Selective index CC50/IC50 HSV-1 (HSV-1 [5]): > 222
- Kd (VEGF): 0.79 ± 0.24 nM
